Test results reported in article PMC5513091, “A novel Alzheimer’s disease drug candidate targeting inflammation and fatty acid metabolism” (Alzheimer's Research & Therapy, 2017).

Experiments:
[1] = tested on: panel of 60 brain ion channels, transporters, and receptors; assay: Lead Profile Screen; type: binding
Excerpt: Before undertaking animal experiments, it is important to determine if a new drug candidate has a chance for further clinical development by determining its pharmacological properties of bioavailability and brain penetrance as well as predicted safety.

[2] = molecular target: hERG (Homo sapiens, UniProt Q12809); assay: hERG assay
Chain of hERG (Q12809 whole entry): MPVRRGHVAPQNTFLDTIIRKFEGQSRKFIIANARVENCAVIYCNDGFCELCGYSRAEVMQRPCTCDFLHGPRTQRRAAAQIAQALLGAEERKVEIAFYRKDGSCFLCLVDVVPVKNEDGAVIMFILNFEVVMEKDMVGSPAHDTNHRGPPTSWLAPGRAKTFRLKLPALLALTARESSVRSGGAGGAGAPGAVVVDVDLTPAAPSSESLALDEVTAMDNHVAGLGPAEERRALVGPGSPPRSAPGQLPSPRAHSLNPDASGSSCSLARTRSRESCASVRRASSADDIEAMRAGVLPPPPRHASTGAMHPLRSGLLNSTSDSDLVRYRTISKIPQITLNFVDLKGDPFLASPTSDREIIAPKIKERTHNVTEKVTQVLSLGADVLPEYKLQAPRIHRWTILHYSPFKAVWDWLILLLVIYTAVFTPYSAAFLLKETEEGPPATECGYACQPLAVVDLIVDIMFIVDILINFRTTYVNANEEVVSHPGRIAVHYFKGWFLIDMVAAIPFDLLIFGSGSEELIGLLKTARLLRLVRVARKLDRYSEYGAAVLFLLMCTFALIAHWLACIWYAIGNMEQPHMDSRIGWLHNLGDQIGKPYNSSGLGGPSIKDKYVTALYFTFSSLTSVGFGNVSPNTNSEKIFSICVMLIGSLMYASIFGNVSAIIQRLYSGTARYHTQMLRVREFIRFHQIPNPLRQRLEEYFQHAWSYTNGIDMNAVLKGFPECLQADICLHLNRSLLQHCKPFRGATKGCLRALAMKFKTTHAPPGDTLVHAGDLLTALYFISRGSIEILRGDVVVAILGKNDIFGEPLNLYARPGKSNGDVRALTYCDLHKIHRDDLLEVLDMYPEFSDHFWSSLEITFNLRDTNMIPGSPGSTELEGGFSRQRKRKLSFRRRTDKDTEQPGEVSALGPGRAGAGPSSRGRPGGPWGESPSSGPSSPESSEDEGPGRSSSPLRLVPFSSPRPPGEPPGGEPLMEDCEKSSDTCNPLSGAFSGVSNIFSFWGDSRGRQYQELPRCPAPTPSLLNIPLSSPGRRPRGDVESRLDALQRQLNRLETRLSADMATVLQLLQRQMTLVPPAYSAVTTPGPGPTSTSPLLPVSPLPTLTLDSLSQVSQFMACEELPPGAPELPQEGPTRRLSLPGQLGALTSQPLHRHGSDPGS

[3] = tested on: APPswe/PS1∆E9 mice; assay: Open-field assay; type: in vivo; conditions: old mice, 200 ppm in chow for 3 months; data not shown

`Cc1ccc(N(/N=C/c2cccc(OC(F)(F)F)c2)C(=O)C(F)(F)F)c(C)c1` [CAD-31] was tested, and the “interaction with proteins in the lead profile screen panel” value ([1]; 10 μM, 60 brain ion channels, transporters, and receptors) was “did not interact”, the EC50 ([1]; all targets of the panel) was greater than 10 µM and the “activity in the hERG assay” value ([2]; 10 μM) was “showed no sign of acute toxicity or activity”. For the same molecule, the EC50 at 10 µM ([2]; human) was greater than 10 µM and the “open-field assay, overt toxicity” value [3] was “no differences between groups”.
